Patent publication US8058242B2, “Chimeric proteins with natriuretic activity” (The University of Queensland, priority 2004, dated 2011)
Values joined by “and” are separate entries in the source; they are usually repeats but may differ in a detail not shown here. Identical values can stand only once. Positions of bridges follow the written chain, without caps; N, C: chain ends. Residues, ends and D or L forms follow the SMILES beside them.

Columns and labels:
[1] = test system: CHF-induced sheep; experiment: Ovine model of tachycardia induced congestive heart failure (Example 9); assay type: in vivo
Source text: All procedures conform with the Guide for the Care and Use of Laboratory Animals published by the US National Institutes of Health (NIH Publication No. 82-23, revised 1996). Six adult crossbred sheep (weight, 50 to 55 kg) were implanted with pacemakers under isoflurane anesthesia and oxygen. A bipolar screw fixation ventricular pacing lead was placed transvenously under fluoroscopic guidance in the apex of the right ventricle. The proximal end of the lead was connected to pacemakers reprogrammed for high-rate pacing (Sigma, Medtronic) that were positioned subcutaneously in the lateral aspect of the neck. Oxytetracycline (5 mL), an antibiotic, and flunixin meglumine (1 mL), an analgesic, were administered subcutaneously prophylactically on the day of surgery. After 3 days of recovery, right ventricular pacing was initiated at 180 bpm and continued for 4 weeks to induce CHF (NYHC III). Animals were anesthetized and an echocardiographic examination and a conductance catheter evaluation were performed.
Animals were randomized to either TNPc or ANP on two consecutive days, according to the schedule in Table 11B. Studies were conducted over a period of 4 days with two study groups.
On the day of the first experiment, after a control period in which baseline measurements were made, drug infusion via a fore-leg vein using new calibrated Terumo syringe pumps was commenced (TNPc or ANP randomized to days 1 or 2) at 2, 4 and 6 pmol/min/kg, each for 30 min. Echocardiographic and conductance catheter evaluations were performed at 30 min after each drug level. On the second day, the experiment was repeated with the other drug (either TNPc or […] according to day 1 treatment) at 2, 4 and 6 pmol/min, each for 30 min and echocardiographic and conductance catheter evaluations were performed at 30 min after each drug level. The animal was euthanased at the conclusion of the experiment. Stock solutions of each peptide were made up under sterile conditions using sterile saline, were protected from light with aluminium foil and kept refrigerated.
Left ventricular (LV) ejection fraction was monitored by echocardiography and the conductance catheter was used to measure LV dP/i, LV end diastolic pressure, LV ESPVR, heart rate and mean arterial pressure (MAP). Values were expressed as mean +/−SEM and were analyzed by Students t-test. A value of p<0.05 was considered significant.

[2] = test system: denuded aortic rings, GC A receptor; experiment: Relaxation of noradrenaline constricted endothelium-denuded aortic rings (Example 11); parameters: species or system rat; settings: GC-A mediated
How it was run: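 Endothelium-denuded thoracic aortic rings (5 mm) from male Sprague Dawley rats were held at 10 g tension in carbogenated physiological salt solution at 37 °C. Denudation was confirmed by under 10% ACh (10 μM) relaxation after phenylephrine (0.3 μM). Rings constricted with noradrenaline, scaled to 40 mM KCl contraction, were relaxed with increasing peptide doses, with at least 3 rings per peptide.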

Structure (SMILES) | reduction of −dp/dt ([1]; TNPc infusion) [%] | +dP/dt ([1]; high dose infusion) | EDP ([1]; high dose infusion) | ESPR slope ([1]; high dose infusion) | ejection fraction ([1]; high dose infusion) | heart rate ([1]; high dose infusion) | −dP/dt ([1]; high dose infusion) | +dP/dt ([1]; low dose infusion) | EDP ([1]; low dose infusion) | ESPR slope ([1]; low dose infusion) | ejection fraction ([1]; low dose infusion) | heart rate ([1]; low dose infusion) | −dP/dt ([1]; low dose infusion) | +dP/dt ([1]; recovery (30 min)) | EDP ([1]; recovery (30 min)) | ESPR slope ([1]; recovery (30 min)) | ejection fraction ([1]; recovery (30 min)) | heart rate ([1]; recovery (30 min)) | −dP/dt ([1]; recovery (30 min)) | Mean relaxation SEM of denuded aortic rings expressed as % of KCl response [2]
CC[C@H](C)[C@H](NC(=O)[C@H](CCCCN)NC(=O)[C@H](CO)NC(=O)[C@H](CC(=O)O)NC(=O)[C@@H](N)CO)C(=O)NCC(=O)N[C@@H](CC(N)=O)C(=O)NCC(=O)N[C@H]1CSSC[C@@H](C(=O)N[C@@H](CC(N)=O)C(=O)N[C@@H](CCCNC(=N)N)C(=O)N[C@H](C(=O)N[C@@H](CCSC)C(=O)N[C@@H](CCC(N)=O)C(=O)N[C@@H](CC(N)=O)C(=O)N2CCC[C@H]2C(=O)N2CCC[C@H]2C(=O)N[C@@H](CCCCN)C(=O)N[C@@H](CCCCN)C(=O)N[C@@H](Cc2ccccc2)C(=O)N[C@@H](CO)C(=O)NCC(=O)N[C@@H](CCC(=O)O)C(=O)O)[C@@H](C)CC)NC(=O)CNC(=O)[C@H](CC(C)C)NC(=O)CNC(=O)[C@H](CO)NC(=O)[C@H](C(C)C)NC(=O)[C@H](CO)NC(=O)CNC(=O)[C@H]([C@@H](C)CC)NC(=O)[C@H](CCCNC(=N)N)NC(=O)[C@H](CC(=O)O)NC(=O)[C@H](CC(C)C)NC(=O)[C@@H]2CCCN2C(=O)[C@H](Cc2ccccc2)NC(=O)CNC(=O)[C@H](Cc2ccccc2)NC1=O [TNPc] (H-SDSKIGNGCFGFPLDRIGSVSGLGCNRIMQNPPKKFSGE-OH; disulfide 9-25) | 27 | 1078.00 | 4.17 | 3.78 | 61.83 | 100.67 | 1298.00 | 1079.67 | 5.83 | 2.72 | 48.17 | 98.00 | 1469.50 | 1064.83 | 7.67 | 3.35 | 42.33 | 98.00 | 1201.50 | 55.0 ± 10.7%
CC[C@H](C)[C@@H]1NC(=O)[C@H](CCCNC(=N)N)NC(=O)[C@H](CC(=O)O)NC(=O)[C@H](CCSC)NC(=O)[C@H](CCCNC(=N)N)NC(=O)CNC(=O)CNC(=O)[C@H](Cc2ccccc2)NC(=O)[C@@H](NC(=O)[C@H](CO)NC(=O)[C@H](CO)NC(=O)[C@H](CCCNC(=N)N)NC(=O)[C@H](CCCNC(=N)N)NC(=O)[C@H](CC(C)C)NC(=O)[C@@H](N)CO)CSSC[C@@H](C(=O)N[C@@H](CC(N)=O)C(=O)N[C@@H](CO)C(=O)N[C@@H](Cc2ccccc2)C(=O)N[C@@H](CCCNC(=N)N)C(=O)N[C@@H](Cc2ccc(O)cc2)C(=O)O)NC(=O)CNC(=O)[C@H](CC(C)C)NC(=O)CNC(=O)[C@H](CO)NC(=O)[C@H](CCC(N)=O)NC(=O)[C@H](C)NC(=O)CNC1=O [hANP, reference compound] | – | 1047.00 | 3.33 | 3.04 | 54.50 | 96.33 | 1332.17 | 949.33 | 5.83 | 2.85 | 42.17 | 91.00 | 1336.50 | 1035.83 | 6.33 | 3.44 | 41.00 | 91.00 | 1232.17 | 66% and 66.5 ± 2.3%
